Columns and labels:
[1] = test system: NF-κB; test: 4κB^wt-luc NF-κB reporter gene assay in BV-2 cells; format: cell-based, mouse
Method: (§1) If correct that TDP-43 acts as a co-activator of p65, then reducing the levels of TDP-43 should attenuate p65 activation. To reduce the expression levels of TDP-43, microglial BV-2 cells were transfected with either TDP-43 siRNA or scrambled siRNA together with 4κB^wt-luc vectors. 72 hrs after transfection some of the cells were either stimulated with LPS (100 ng/ml) or mock stimulated for 12 hrs. […] To examine the effect of reducing TDP-43 levels on NF-κB activation, BV-2 cells were transfected with pCMV-p65 and 4κB^wt-luc vectors. TDP-43 siRNA decreased activation of NF-κB reporter gene in transfected cells. The decrease in NF-κB activation was about 3-fold for 5 ng pCMV-p65 (n=4, p<0.01) and about 2.5-fold for 10 and 20 ng pCMV-p65 (n=4, p<0.05) and 2-fold for 50 ng pCMV-p65 (n=4, p<0.05) as compared to scrambled siRNA transfected cells (FIG. 5B). To examine the physiological significance of TDP-43 inhibition by siRNA, we transfected BV-2 cells with ICAM1-luc vector together with TDP-43 siRNA or scrambled siRNA. 72 hrs after transfection, cells were stimulated with varying concentrations of TNF-α. […] We also tested the effect of TDP-43 siRNA transfected in bone-marrow derived macrophages (BMMs) from normal mice. We compared the level of innate immunity activation when stimulated with LPS.
(§2) BV2 cells were harvested in 120 μl of cell lysis buffer (Promega, Madison, Wis., USA), and an ensuing 1-min centrifugation step (20,000×g) yielded a luciferase-containing supernatant. In both cases aliquots of 20-μl supernatant were tested for luciferase activity (luciferase assay kit, Promega) and for β-galactosidase activity (β-galactosidase assay kit, Promega) to adjust for transfection efficiency.
(§3) To selectively prevent TDP-43 expression, we employed the RNA interference technology. A double-stranded RNA (siRNA) was employed to degrade TDP-43 mRNA and thus to limit the available protein. The siRNA experiments were designed and conducted as described earlier^26. The siRNAs directed against the murine TDP-43 mRNA (NM_145556.4) consisted of sequences with symmetrical 3′-UU overhangs using siRNA Target Finder (Ambion, Tex., USA). […] To account for the non-sequence-specific effects, scrambled siRNA was used. The sequence of scrambled siRNA is as follows: 5′-[…]-3′ (SEQ ID NO:19) and 5′-[…]-3′ (SEQ ID NO:20). TDP-43 siRNAs or the scrambled siRNAs were suspended in diethyl […] water to yield desired concentration. For in vitro transfection, cells were plated in 24-well plates and transfected with 0.6 μmol/L siRNAs with 2 μL Lipofectamine 2000 (Invitrogen). The cells were then kept for 72 h in OptiMEM medium (Gibco).

[2] = test system: ICAM-1 luciferase activity; test: ICAM1-luc luciferase assay in TNF-α stimulated BV-2 cells; format: cell-based, mouse; conditions: vs scrambled siRNA
Method: as §1, §2
To selectively prevent TDP-43 expression, we employed the RNA interference technology. A double-stranded RNA (siRNA) was employed to degrade TDP-43 mRNA and thus to limit the available protein. The siRNA experiments were designed and conducted as described earlier^26. […]

[3] = test system: bone-marrow derived macrophages (BMMs); test: Real-time RT-PCR of innate immunity genes in LPS stimulated bone-marrow derived macrophages; format: cell-based, mouse; conditions: vs scrambled siRNA
Method: as §1
Real-time RT-PCR was performed with a LightCycler 480 (Roche Diagnostics) sequence detection system using LightCycler SYBR Green I at the Quebec genomics Centre, Quebec. Total RNA was extracted from cell culture experiments using Trizol reagent (Invitrogen). Total RNA was treated with DNase (Qiagen, Valencia, Calif., USA) to get rid of genomic DNA contaminations. Total RNA was the quantified using Nanodrop and its purity verified by Bioanalyzer 2100 (Agilent Technologies, Santa Clara, Calif., USA). Gene-specific primers were constructed using the GeneTools (Biotools Inc.) software. 3 genes Atp5, Hprt1 and GAPDH were used as internal control genes. The primers used for the analysis of genes are given in S-Table 2 (Swamp et al. J Exp Med 2011, 208, 2429-2447).
as §3

[4] = test system: endogenous mouse TDP-43; test: Western blot of TDP-43 after siRNA transfection of BV-2 cells; format: cell-based; conditions: vs scrambled siRNA
Method: as §1
To selectively prevent TDP-43 expression, we employed the RNA interference technology. […]

TDP-43 siRNA: double-stranded siRNA against murine TDP-43 mRNA: 5′-AGGAAUCAGCGUGCAUAUAUU-3′ (SEQ ID NO:17), 5′-UAUAUGCACGCUGAUUCCUUU-3′ (SEQ ID NO:18) (listed as RNA, chemistry not given here)
decrease in NF-κB activation (4κB^wt-luc reporter) ([1]; 5 ng pCMV-p65, vs scrambled siRNA): about 3 fold | decrease in NF-κB activation (4κB^wt-luc reporter) ([1]; 10 ng pCMV-p65, vs scrambled siRNA): about 2.5 fold | decrease in NF-κB activation (4κB^wt-luc reporter) ([1]; 20 ng pCMV-p65, vs scrambled siRNA): about 2.5 fold | decrease in NF-κB activation (4κB^wt-luc reporter) ([1]; 50 ng pCMV-p65, vs scrambled siRNA): 2 fold | decrease in ICAM-1 luciferase activity ([2]; 0.5 ng/ml TNF-α): 2 fold | decrease in ICAM-1 luciferase activity ([2]; 1.0 ng/ml TNF-α): 2.5 fold | decrease in ICAM-1 luciferase activity ([2]; 1.5 ng/ml TNF-α): 2 fold | reduced levels of Cox-2 mRNA [3]: 2 fold | reduced levels of IL-1β mRNA [3]: 2 fold | reduced levels of IL-6 mRNA [3]: 2.5 fold | reduced levels of IP-10 mRNA [3]: 2 fold | reduced levels of TLR2 mRNA [3]: 1.5 fold | reduced levels of TNF-α mRNA [3]: 3 fold | reduced levels of p65 (RELA) mRNA [3]: 3 fold | endogenous mouse TDP-43 levels (western blot) [4]: reduced the endogenous mouse TDP-43 levels significantly
